# Results from PMC8879095, “UHPLC-MS/MS Analysis of Antibiotics Transfer and Concentrations in Porcine Oral Fluid after Intramuscular Application” (Pharmaceuticals, 2022).
# Read-outs that look alike come from different tables or passages of the source.
# Experiments:
# [1] = cited from earlier work
# [2] = Antibiotic concentrations in porcine oral fluid after intramuscular application (UHPLC-MS/MS); format: in vivo; details: pigs, i.m.
# [3] = parameters: method as in earlier work; details: cited from earlier work
smiles,measurement,setting,value
"CCC[C@@H]1C[C@@H](C(=O)N[C@@H]([C@H]2O[C@H](SC)[C@H](O)[C@@H](O)[C@H]2O)[C@@H](C)O)N(C)C1 [LIN, lincomycin]",pKa,[1],about 7.6
same,concentration at 1 d,"[2]; male, (Landrace × Yorkshire) × Duroc crossbred (DanBred sows), pig, intramuscular, oral fluid, first day of medication (abstract), read-out: concentration in oral fluid on the first day of medication",10500 ng/g
same,concentration at 1 d,"[2]; male, (Landrace × Yorkshire) × Duroc crossbred (DanBred sows), pig, intramuscular, oral fluid, time 1 d (24 h after first injection), treatment period, read-out: Avarage Concentrations in oral fluid",10500 ng/mL
same,concentration at 2 d,"[2]; male, (Landrace × Yorkshire) × Duroc crossbred (DanBred sows), pig, intramuscular, oral fluid, time 2 d, treatment period, read-out: Avarage Concentrations in oral fluid",2960 ± 446 ng/mL
same,concentration at 3 d,"[2]; male, (Landrace × Yorkshire) × Duroc crossbred (DanBred sows), pig, intramuscular, oral fluid, time 3 d, treatment period, read-out: Avarage Concentrations in oral fluid",4250 ± 559 ng/mL
same,concentration at 4 d,"[2]; male, (Landrace × Yorkshire) × Duroc crossbred (DanBred sows), pig, intramuscular, oral fluid, time 4 d, posttreatment, read-out: Avarage Concentrations in oral fluid",1550 ng/mL
same,concentration at 5 d,"[2]; male, (Landrace × Yorkshire) × Duroc crossbred (DanBred sows), pig, intramuscular, oral fluid, time 5 d, posttreatment, read-out: Avarage Concentrations in oral fluid",1670 ± 199 ng/mL
same,concentration at 6 d,"[2]; male, (Landrace × Yorkshire) × Duroc crossbred (DanBred sows), pig, intramuscular, oral fluid, time 6 d, posttreatment, read-out: Avarage Concentrations in oral fluid",1790 ± 203 ng/mL
same,concentration at 7 d,"[2]; male, (Landrace × Yorkshire) × Duroc crossbred (DanBred sows), pig, intramuscular, oral fluid, time 7 d, posttreatment, read-out: Avarage Concentrations in oral fluid",1480 ± 186 ng/mL
same,concentration at 8 d,"[2]; male, (Landrace × Yorkshire) × Duroc crossbred (DanBred sows), pig, intramuscular, oral fluid, time 8 d, posttreatment, read-out: Avarage Concentrations in oral fluid",437 ± 101 ng/mL
same,concentration at 9 d,"[2]; male, (Landrace × Yorkshire) × Duroc crossbred (DanBred sows), pig, intramuscular, oral fluid, time 9 d, posttreatment, read-out: Avarage Concentrations in oral fluid",457 ± 96 ng/mL
same,concentration at 10 d,"[2]; male, (Landrace × Yorkshire) × Duroc crossbred (DanBred sows), pig, intramuscular, oral fluid, time 10 d, posttreatment, read-out: Avarage Concentrations in oral fluid",420 ± 83 ng/mL
same,concentration at 11 d,"[2]; male, (Landrace × Yorkshire) × Duroc crossbred (DanBred sows), pig, intramuscular, oral fluid, time 11 d, posttreatment, read-out: Avarage Concentrations in oral fluid",194 ± 55 ng/mL
same,concentration at 12 d,"[2]; male, (Landrace × Yorkshire) × Duroc crossbred (DanBred sows), pig, intramuscular, oral fluid, time 12 d, posttreatment, read-out: Avarage Concentrations in oral fluid",257 ± 76 ng/mL
same,concentration at 13 d,"[2]; male, (Landrace × Yorkshire) × Duroc crossbred (DanBred sows), pig, intramuscular, oral fluid, time 13 d, posttreatment, read-out: Avarage Concentrations in oral fluid",131 ± 41 ng/mL
same,concentration at 14 d,"[2]; male, (Landrace × Yorkshire) × Duroc crossbred (DanBred sows), pig, intramuscular, oral fluid, time 14 d, posttreatment, read-out: Avarage Concentrations in oral fluid",125 ± 33 ng/mL
same,concentration at 15 d,"[2]; male, (Landrace × Yorkshire) × Duroc crossbred (DanBred sows), pig, intramuscular, oral fluid, time 15 d, posttreatment, read-out: Avarage Concentrations in oral fluid",277 ± 61 ng/mL
same,concentration at 16 d,"[2]; male, (Landrace × Yorkshire) × Duroc crossbred (DanBred sows), pig, intramuscular, oral fluid, time 16 d, posttreatment, read-out: Avarage Concentrations in oral fluid",337 ± 69 ng/mL
same,concentration at 17 d,"[2]; male, (Landrace × Yorkshire) × Duroc crossbred (DanBred sows), pig, intramuscular, oral fluid, time 17 d, posttreatment, read-out: Avarage Concentrations in oral fluid",128 ± 28 ng/mL
same,concentration at 18 d,"[2]; male, (Landrace × Yorkshire) × Duroc crossbred (DanBred sows), pig, intramuscular, oral fluid, time 18 d, posttreatment, read-out: Avarage Concentrations in oral fluid",302 ± 51 ng/mL
same,concentration at 19 d,"[2]; male, (Landrace × Yorkshire) × Duroc crossbred (DanBred sows), pig, intramuscular, oral fluid, time 19 d, posttreatment, read-out: Avarage Concentrations in oral fluid",279 ± 44 ng/mL
same,concentration at 20 d,"[2]; male, (Landrace × Yorkshire) × Duroc crossbred (DanBred sows), pig, intramuscular, oral fluid, time 20 d, posttreatment, read-out: Avarage Concentrations in oral fluid",376 ± 52 ng/mL
same,concentration at 21 d,"[2]; male, (Landrace × Yorkshire) × Duroc crossbred (DanBred sows), pig, intramuscular, oral fluid, time 21 d, posttreatment, read-out: Avarage Concentrations in oral fluid",252 ± 39 ng/mL
same,concentration at 22 d,"[2]; male, (Landrace × Yorkshire) × Duroc crossbred (DanBred sows), pig, intramuscular, oral fluid, time 22 d, posttreatment, read-out: Avarage Concentrations in oral fluid",142 ± 24 ng/mL
same,concentration at 23 d,"[2]; male, (Landrace × Yorkshire) × Duroc crossbred (DanBred sows), pig, intramuscular, oral fluid, time 23 d, posttreatment, read-out: Avarage Concentrations in oral fluid",298 ± 33 ng/mL
same,concentration at 24 d,"[2]; male, (Landrace × Yorkshire) × Duroc crossbred (DanBred sows), pig, intramuscular, oral fluid, time 24 d, posttreatment, read-out: Avarage Concentrations in oral fluid",326 ± 47 ng/mL
same,concentration at 25 d,"[2]; male, (Landrace × Yorkshire) × Duroc crossbred (DanBred sows), pig, intramuscular, oral fluid, time 25 d, posttreatment, read-out: Avarage Concentrations in oral fluid",180 ± 44 ng/mL
same,concentration at 26 d,"[2]; male, (Landrace × Yorkshire) × Duroc crossbred (DanBred sows), pig, intramuscular, oral fluid, time 26 d, posttreatment, read-out: Avarage Concentrations in oral fluid",160 ± 36 ng/mL
same,concentration at 27 d,"[2]; male, (Landrace × Yorkshire) × Duroc crossbred (DanBred sows), pig, intramuscular, oral fluid, time 27 d, posttreatment, read-out: Avarage Concentrations in oral fluid",205 ± 43 ng/mL
same,concentration at 28 d,"[2]; male, (Landrace × Yorkshire) × Duroc crossbred (DanBred sows), pig, intramuscular, oral fluid, time 28 d, posttreatment, read-out: Avarage Concentrations in oral fluid",103 ± 26 ng/mL
same,concentration at 29 d,"[2]; male, (Landrace × Yorkshire) × Duroc crossbred (DanBred sows), pig, intramuscular, oral fluid, time 29 d, posttreatment, read-out: Avarage Concentrations in oral fluid",85.6 ± 16 ng/mL
same,concentration at 30 d,"[2]; male, (Landrace × Yorkshire) × Duroc crossbred (DanBred sows), pig, intramuscular, oral fluid, time 30 d, posttreatment, read-out: Avarage Concentrations in oral fluid",58.1 ng/mL
same,concentration in oral fluid at withdrawal period,"[2]; oral fluid, at the end of the withdrawal period for tissues of each drug (Table 3)",437 ng/mL
same,Avarage Concentrations in oral fluid,"[2]; oral fluid, time 1 d (24 h after first injection), treatment period","10,500 ± 1889 µg/L"
same,Avarage Concentrations in oral fluid,"[2]; oral fluid, time 4 d, posttreatment",1550 ± 211 µg/L
same,Avarage Concentrations in oral fluid,"[2]; oral fluid, time 30 d, posttreatment",58.1 ± 12 µg/L
same,distribution to oral fluid,[2]; conclusion in words,high distribution
same,apparent volume of distribution,[3],> 1 L/kg
